Square brackets hold non-standard residues; d marks the D form. Peptide text beside a SMILES is read from it. * marks the point of attachment. Sta = CC(C)C[C@H](N)[C@@H](O)CC(=O)O; Isovaleryl = CC(C)CC(=O)*
Assays:
[1] = tested on: peptidase activity in T. gallinae cell-free filtrates; assay: One-dimensional substrate (0.2% gelatin) SDS-PAGE zymogram of cell-free filtrates; format: biochemical; conditions: clone 5895-C1/06 P49 and P130
Description: (§1) For analysis in one- (1-D) and two-dimensional (2-D) zymogram and conventional SDS PAGE the filtrate was prepared in the following way: T. gallinae clonal culture was grown in Hollander fluid (HF) medium as described recently (Amin et al., Exp. Parasitol. 124 (2010), 202-208). After 24 h of incubation, the trichomonad culture was centrifuged at 3300 x g for 5 min; the pellet was washed three times in phosphate buffer saline (PBS, pH 7.2) and was then suspended in 1 ml HF medium without serum. Motile trichomonads were counted by a Neubauer cell counting chamber (Reichert, Buffalo, NY). The concentration of the inoculum was adjusted to 10^7 motile trophozoites. 10^7 trichomonad cells were grown for 3, 6, 16, 24 h in 10 ml HF medium without serum and the cell-free filtrate was prepared. The trichomonad culture was centrifuged at 3300 x g for 5 min, and then the supernatant from the culture was filtered through 0.22 µm cellulose acetate filters (Millipore, VWR). Afterwards, 1 mM PMSF, 5 µM of Pepstatin A, 1 mM TLCK and 270 µM E-64 were added to the cell-free filtrate and incubated for 30 min on ice before concentrating the proteins. Two types of filters were used to concentrate the proteins of the cell-free filtrate. Firstly, CEN-TRIPREP® Centrifugal Filter Device 3K (Millipore, Vienna, Austria) was applied to reduce the initial volume of the filtrate (15ml) to 500 µl. After that, the samples were more concentrated using Amicon® Ultra-0.5 3K centrifugal filter device (Millipore, Vienna, Austria) to obtain a final volume of 100 µl. Both types of filters were used following manufacturer's instructions. With the samples for 2-dimensional (2-D) sodium dodecyl sulphate (SDS)-polyacrylamide gel electrophoresis (PAGE) buffer was exchanged (three times) to 10 mM Tris-Cl pH 7.2 by using the same Amicon® Ultra-0,5 3K centrifugal filter device (Millipore,Vienna, Austria). For all samples the protein concentration was measured by Bradford Reagent (Fermentas, Thermo Scientific).
(§2) For one dimension (1-D) zymographic analysis, 24 µg of concentrated p 183 proteins from cell free filtrates with and without peptidase inhibitors were separated by discontinuous SDS-PAGE (8%) copolymerized with 0.2% gelatin as substrate. In parallel, the same samples were investigated by conventional 1-D SDS-PAGE (8%). After electrophoresis, the substrate gel was incubated in 2.5% Triton X-100 (Bio-Rad Laboratories GmbH, Vienna, Austria) for 1 h at room temperature to remove SDS. Subsequently the peptidases were activated by incubating the gel in zymogram development buffer (Bio-Rad Laboratories GmbH, Vienna, Austria) for 24 h at 37 °C. […]

LMH monolayer = assay: Cytopathic effect of T. gallinae cell-free filtrate on LMH monolayer (monolayer detachment, lesion score); format: cell-based, chicken; conditions: compared with filtrate without inhibitors
Description: Permanent chicken liver (LMH) cells were grown in Medium 199 + Earle's salts + L-Glutamine (Invitrogen/Gibco, Paisley, U.K.). The medium was supplemented with 10% of FBS, 10% Tryptose Phosphate broth, penicillin (40,000 IU/ml) and streptomycin ([…]) (all Invitrogen/Gibco, Paisley, U.K). One milliliter of the media suspension containing 1x10^6 cells was inoculated into 75 cm^2 flasks with filtered caps (Sarstedt, Wiener Neudorf, Austria) containing 6 ml medium. Cells were kept in a controlled atmosphere of 5% CO2 at 37°C and around 85-90% humidity. After 72 h of incubation, a confluent monolayer of LMH cells was obtained with an average of 7x10^6 cells per flask. Cells were passaged every three to four days depending on their density.
(§3) For the analysis on LMH monolayers cell-free filtrate was prepared in the following way: 10^7 cells of a clonal culture of T. gallinae were incubated at 37°C for 24 h in the same medium as used for growth of LMH. Before incubation the protozoal cells were washed three times in PBS, (pH 7.2), trichomonad culture was centrifuged at 3300 x g for 5 min and then the supernatant from the culture was filtered through 0.22 µm cellulose acetate filters (Millipore, VWR).
Each monolayer was investigated visually by an inverted 158 light microscope to detect the effect of the cell-free filtrates on LMH monolayer. Assesment of the monolayer was performed as recently described (Amin et al., Vet.Parasitol. (2011), doi: 10.1016/j.vetpar.2011.11.037).
Firstly, preliminary experiments were done to establish the concentration of each peptidase inhibitor which was not toxic to the monolayer cell culture. In these initial experiments different concentrations of the following peptidase inhibitors were added to not-infected monolayer: 0.2 mM, 0.5 mM, 1 mM Phenylmethylsulfonyl fluoride (PMSF) as serine peptidase inhibitor, 1 µM, 2.5 µM, 5 µM pepstatin A as aspartic peptidase inhibitor, 135 µM, 540 µM, 1 mM N-α-p-Tosyl-L-Lysine chloromethyl ketone (TLCK) as cysteine and some serine peptidase inhibitor, and 70 µM 140 µM, 270 µM L-3-carboxyl-2,3-trans-epoxysuccinylleucylamido (4-guanidino) butane (E-64) as cysteine peptidase inhibitor (all purchased from Sigma-Aldrich, Steinheim, Germany).

[2] = tested on: peptidase activity in T. gallinae cell-free filtrates; assay: Conventional 1-D SDS-PAGE of cell-free filtrates with and without peptidase inhibitors; format: biochemical; conditions: clone 5895-C1/06 P49
Description: as §1, §2

[3] = tested on: T. gallinae clone 5895-C1/06 P18; assay: Infection of spf chicken embryos with T. gallinae coincubated with peptidase inhibitors (mortality, necropsy, histology, PCR, ISH); format: in vivo, Trichomonas gallinae; conditions: for detection of trichomonad nucleic acid by ISH / histopathological examination of different organs of infected embryos: spf chicken embryos
Description: (§4) The axenic clonal cultures of T. gallinae were grown in Hollander fluid (HF) medium, as described above (Amin et al., 2010). At first, clonal cultures which underwent only a few passages were investigated. Higher passages were obtained by transferring 1 ml of the respective culture into 9 ml of fresh HF medium every 48 h. Assessing the virulence as well as the effect of peptidase inhibitors was performed with an equal passage number (P18). After 24 h of incubation, the cultures were centrifuged at 3300 x g for 5 min (Hettich Rotanta 460, Tuttlingen, Germany). The pellet was washed three times by addition of phosphate buffer saline (PBS, pH 7.2) followed by centrifugation. For counting cells were suspended in 1 ml PBS buffer and motile trichomonads were determined by a Neubauer cell counting chamber (Reichert, Buffalo, NY, USA). The concentration of the inoculum was adjusted to contain approximately 5x10^6 actively motile trophozoites suspended in 200 µl PBS buffer. The viability of trichomonad cells was evaluated using trypan blue staining.
(§5) For each treatment, ten 9-day old embryonated spf chicken eggs were inoculated with 200 µl of the individual sample of protozoa suspended in sterile PBS via the allantoic cavity following a standard egg inoculation procedure (Senne, 1998). In addition, ten eggs were inoculated in the same way with sterile PBS with and without an adjusted concentration of peptidase inhibitors, to be used as a control. The inoculated eggs were sealed with melted paraffin and incubated at 37°C at a relative humidity of 55-60%. The survival of the embryos was monitored by candling the eggs daily. At the end of the incubation period (10 days) the eggs were placed at -20°C for two hours to kill the embryos and to avoid hatching. The allantoic fluid was harvested and examined microscopically for the detection of flagellates, before the embryos were necropsied. Afterwards, samples from different organs (liver, heart, lung, proventriculus, gizzard, kidney, spleen, and intestine) were preserved in 10% buffered neutral formalin and later on embedded in paraffin wax for histological examination. […] Additionally, samples from liver and gut were preserved at -20°C for polymerase chain reaction (PCR). DNA was extracted from tissue samples applying the Dneasy® Tissue Kit (Qiagen, Vienna, Austria), according to the manufacturer instructions. PCR was performed following the protocol of Grabensteiner and Hess (Vet. Parasitol. 142 (2006), 223-230). The embryos that died during the experiments were exposed to the same examination procedures. During necropsy autoclaved scissors and disposable tweezers were used for collecting the samples to avoid cross contamination.

T. gallinae trophozoites = assay: Viability of trichomonads with peptidase inhibitors (trypan blue staining); format: cell-based; conditions: read-out: optimum concentration that had no effect on the viability of T. gallinae trophozoites
Description: as §4

[4] = tested on: embryonated spf chicken eggs; assay: Toxicity of peptidase inhibitors in PBS to non-infected spf chicken embryos (control groups); format: in vivo
Description: as §5, with “PCR was performed following the protocol of Grabensteiner and Hess (Vet. Parasitol. 142 (2006), 223-230). The embryos that died during the experiments were exposed to the same examination procedures. During necropsy autoclaved scissors and disposable tweezers were used for collecting the samples to avoid cross contamination.” left out

LMH cells = assay: CellTiter 96 aqueous one solution cytotoxicity assay of cell-free filtrate on LMH cells; format: cell-based, chicken; conditions: Gallus gallus; 270 µM E-64; 72 h of incubation; clone 5895-C1/06, passage 18; filtrate without E-64: 70.9%; read-out: cytotoxicity of the cell-free filtrate on LMH cells in the presence of the inhibitor
Description: as §3
In order to investigate the cytotoxicity of cell-free filtrate on cell culture, CellTiter 96® aqueous one solution cell proliferation assay (Promega Corporation, Madison, USA) was used following manufacturer's instructions. The cell-free filtrate from 10^7 trichomonad cells was prepared as described above and 270 µM of E-64 as cysteine peptidase inhibitor was added to cell-free filtrate before its incubation with the monolayer. Cytotoxicity assay was performed as described recently by Amin et al. (2011).

Entamoeba histolytica = conditions: SCID mice; preincubation of the trophozoites with the inhibitor; cited from earlier work

O=S(=O)(F)Cc1ccccc1 [PMSF, Phenylmethylsulfonyl fluoride]
proteolytic bands on zymograms of cell-free filtrates ([1]; 1 mM PMSF): same proteolytic regions as the sample without inhibitors
cytopathic effects induced by trichomonads (detachment of the monolayer) (LMH monolayer; 1 mM PMSF added to cell-free filtrate of clone 5895-C1/06): partially inhibited cytopathic effects
band pattern in conventional SDS-PAGE ([2]; 1 mM PMSF): this pattern was not prominent

Cc1ccc(S(=O)(=O)N[C@@H](CCCCN)C(=O)CCl)cc1 [TLCK, N-α-p-Tosyl-L-Lysine chloromethyl ketone]
PCR results from the liver and gut of infected embryos ([3]; 675 µM TLCK coincubated): positive PCR results
PCR results: infiltration of the flagellate to the liver ([3]; 675 µM TLCK, compared with E-64): more distinct inhibitory effect on the infiltration of the flagellate to the liver than E-64
detection of trichomonad nucleic acid by ISH ([3]; 675 µM TLCK): nucleic acid of trichomonds was demonstrated by ISH in the hepatic parenchyma
histopathological examination of different organs of infected embryos ([3]; 675 µM TLCK): no histological changes
MNTC (T. gallinae trophozoites): 675 µM
cytotoxic effect on the embryos, mortalities or pathomorphological changes in negative control groups ([4]; 675 µM TLCK in PBS): no cytotoxic effect on the embryos
proteolytic bands on zymograms of cell-free filtrates ([1]; 1 mM TLCK): No proteolytic bands were observed
cytopathic effects induced by trichomonads (detachment of the monolayer) (LMH monolayer; 135 µM TLCK added to cell-free filtrate of clone 5895-C1/06): partially inhibited cytopathic effects
band pattern in conventional SDS-PAGE ([2]; 1 mM TLCK): pattern of sharp bands

CC(C)CC(=O)N[C@H](C(=O)N[C@H](C(=O)N[C@@H](CC(C)C)[C@@H](O)CC(=O)N[C@@H](C)C(=O)N[C@@H](CC(C)C)[C@@H](O)CC(=O)O)C(C)C)C(C)C [Pepstatin A, pepstatin A] (Isovaleryl-VV[Sta]A[Sta]-OH)
proteolytic bands on zymograms of cell-free filtrates ([1]; 5 µM Pepstatin A): same proteolytic regions as the sample without inhibitors
cytopathic effects induced by trichomonads (detachment of the monolayer) (LMH monolayer; 5 µM Pepstatin A added to cell-free filtrate of clone 5895-C1/06): no inhibitory effect
band pattern in conventional SDS-PAGE ([2]; 5 µM Pepstatin A): this pattern was not prominent

CC(C)CC(NC(=O)C1OC1C(=O)O)C(=O)NCCCCNC(=N)N [E-64, L-3-carboxyl-2,3-trans-epoxysuccinylleucylamido (4-guanidino) butane]
PCR results: infection in the presence versus absence of inhibitor ([3]; 270 µM E-64): no considerable differences
detection of trichomonad nucleic acid by ISH ([3]; 270 µM E-64): nucleic acid of trichomonds was demonstrated by ISH in the hepatic parenchyma
histopathological examination of different organs of infected embryos ([3]; 270 µM E-64): no histological changes
PCR results from the liver and gut of infected embryos ([3]; 270 µM E-64 coincubated): positive PCR results
MNTC (T. gallinae trophozoites): 270 µM
cytotoxicity at 270 µM (LMH cells): 37.1%
cytotoxic effect on the embryos, mortalities or pathomorphological changes in negative control groups ([4]; 270 µM E-64 in PBS): no cytotoxic effect on the embryos
proteolytic bands on zymograms of cell-free filtrates ([1]; 270 µM E-64): No proteolytic bands were observed
cytopathic effects induced by trichomonads (detachment of the monolayer) (LMH monolayer; 270 µM E64 added to cell-free filtrate of clone 5895-C1/06): best inhibition
cytopathic effects induced by trichomonads (detachment of the monolayer) (LMH monolayer; 270 µM E64 added to cell-free filtrate of clone 5895-C1/06, listed as E64): partially inhibited cytopathic effects
liver abscesses produced by Entamoeba histolytica (Entamoeba histolytica): greatly reduced
band pattern in conventional SDS-PAGE ([2]; 270 µM E-64): pattern of sharp bands

Reference: EP2633855A1, “Protease inhibitors for treating Trichomonas gallinae infections” (Veterinärmedizinische Universität Wien, priority 2012, dated 2013)
